# Assay: storage stability of the intermediate
# Format: physicochemical
structure (smiles),measurement,setting,value
"O=C(Nc1ccc2c(c1)c(CN1CCCC1)cn2Cc1c(Cl)cccc1Cl)Oc1ccccc1 [Example 2, 5-phenyloxycarbonylamino-3-(1-pyrrolidinylmethyl)-N-[1-(2,6-dichlorophenyl)methyl]-1H-indole]",can be stored (storage stability),"room temperature under light shielding, crystalline",over 2 years
"O=C(Nc1ccc2c(CN3CCCC3)cn(Cc3c(Cl)cccc3Cl)c2c1)Oc1ccccc1 [Example 4, 6-phenyloxycarbonylamino-3-(1-pyrrolidinylmethyl)-N-[1-(2,6-dichlorophenyl)methyl]-1H-indole]",stability of storage,"under refrigeration and light shielding, amorphous powder",over 3 months
